Key:
Parameters in all cases: scale not given here
[1] = tested on: ABUTH Velvetleaf; test: Postemergence herbicidal evaluation, ABUTH; format: in vivo, Abutilon theophrasti, Medic.; settings: postemergence spray, rated about two-three weeks after treatment
Procedure, shortened: (§1)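 Postemergence spray, 40 psi nozzle, on ~2-week seedlings. Carrier: acetone/water 80/20, 1.0% methylated seed oil; dose ~0.006–0.400 kg/ha. Scored visually at 2–3 weeks.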

[2] = tested on: AMBEL Ragweed, Common; test: Postemergence herbicidal evaluation, AMBEL; format: in vivo, Ambrosia artemisifolia, L.; settings: postemergence spray, rated about two-three weeks after treatment
Procedure, shortened: as §1

[3] = tested on: CASOB Sicklepod; test: Postemergence herbicidal evaluation, CASOB; format: in vivo, Cassia obtusifolia, L.; settings: postemergence spray, rated about two-three weeks after treatment
Procedure, shortened: as §1

[4] = tested on: CHEAL Lambsquarters, Common; test: Postemergence herbicidal evaluation, CHEAL; format: in vivo, Chenopodium album, L.; settings: postemergence spray, rated about two-three weeks after treatment
Procedure, shortened: as §1

[5] = tested on: ECHOG Barnyardgrass; test: Postemergence herbicidal evaluation, ECHOG; format: in vivo, Echinochloa crus-galli, (L.) Beau; settings: postemergence spray, rated about two-three weeks after treatment
Procedure, shortened: as §1

[6] = tested on: GALAP Galium; test: Postemergence herbicidal evaluation, GALAP; format: in vivo, Galium aparine; settings: postemergence spray, rated about two-three weeks after treatment
Procedure, shortened: as §1

[7] = tested on: IPOHE Morningglory, Ivyleaf; test: Postemergence herbicidal evaluation, IPOHE; format: in vivo, Ipomoea hederacea, (L.) Jacq.; settings: postemergence spray, rated about two-three weeks after treatment
Procedure, shortened: as §1

[8] = tested on: SETVI Foxtail, Green; test: Postemergence herbicidal evaluation, SETVI; format: in vivo, Setaria viridis, (L.) Beau; settings: postemergence spray, rated about two-three weeks after treatment
Procedure, shortened: as §1

[9] = tested on: GLXMAW Soybean, Williams; test: Postemergence herbicidal evaluation, GLXMAW; format: in vivo, Glycine max, (L.) Merr. cv Williams; settings: postemergence spray, rated about two-three weeks after treatment
Procedure, shortened: as §1

[10] = tested on: TRZAWR Wheat, Winter, cv Riband; test: Postemergence herbicidal evaluation, TRZAWR; format: in vivo, Triticum aestivum; settings: postemergence spray, rated about two-three weeks after treatment
Procedure, shortened: as §1

[11] = tested on: ORYSAT Rice, Tebonnet; test: Postemergence herbicidal evaluation, ORYSAT; format: in vivo, Oryza sativa, (L.); settings: postemergence spray, rated about two-three weeks after treatment
Procedure, shortened: as §1

[12] = tested on: ZEAMX Corn, Field; test: Postemergence herbicidal evaluation, ZEAMX; format: in vivo, Zea mays, L. (Sammel-Bezeichnung); settings: postemergence spray, rated about two-three weeks after treatment
Procedure, shortened: as §1

[13] = tested on: ABUTH Velvetleaf; test: Preemergence herbicidal evaluation, ABUTH; format: in vivo, Abutilon theophrasti, Medic.; settings: preemergence
Procedure, shortened: (§2)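 Preemergence soil spray: aqueous acetone, ~0.013–0.800 kg/ha, applied right after sowing (seed/potting-soil mix over ~1 in soil). Greenhouse, routine watering. Scored 4–5 wk post-treatment on a rating scale.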

[14] = tested on: AMBEL Ragweed, Common; test: Preemergence herbicidal evaluation, AMBEL; format: in vivo, Ambrosia artemisifolia, L.; settings: preemergence
Procedure, shortened: as §2

[15] = tested on: CASOB Sicklepod; test: Preemergence herbicidal evaluation, CASOB; format: in vivo, Cassia obtusifolia, L.; settings: preemergence
Procedure, shortened: as §2

[16] = tested on: CHEAL Lambsquarters, Common; test: Preemergence herbicidal evaluation, CHEAL; format: in vivo, Chenopodium album, L.; settings: preemergence
Procedure, shortened: as §2

[17] = tested on: ECHOG Barnyardgrass; test: Preemergence herbicidal evaluation, ECHOG; format: in vivo, Echinochloa crus-galli, (L.) Beau; settings: preemergence
Procedure, shortened: as §2

[18] = tested on: GALAP Galium; test: Preemergence herbicidal evaluation, GALAP; format: in vivo, Galium aparine; settings: preemergence
Procedure, shortened: as §2

[19] = tested on: IPOHE Morningglory, Ivyleaf; test: Preemergence herbicidal evaluation, IPOHE; format: in vivo, Ipomoea hederacea, (L.) Jacq.; settings: preemergence
Procedure, shortened: as §2

[20] = tested on: SETVI Foxtail, Green; test: Preemergence herbicidal evaluation, SETVI; format: in vivo, Setaria viridis, (L.) Beau; settings: preemergence
Procedure, shortened: as §2

[21] = tested on: GLXMAW Soybean, Williams; test: Preemergence herbicidal evaluation, GLXMAW; format: in vivo, Glycine max, (L.) Merr. cv Williams; settings: preemergence
Procedure, shortened: as §2

[22] = tested on: TRZAWR Wheat, Winter, cv Riband; test: Preemergence herbicidal evaluation, TRZAWR; format: in vivo, Triticum aestivum; settings: preemergence
Procedure, shortened: as §2

[23] = tested on: ORYSAT Rice, Tebonnet; test: Preemergence herbicidal evaluation, ORYSAT; format: in vivo, Oryza sativa, (L.); settings: preemergence
Procedure, shortened: as §2

[24] = tested on: ZEAMX Corn, Field; test: Preemergence herbicidal evaluation, ZEAMX; format: in vivo, Zea mays, L. (Sammel-Bezeichnung); settings: preemergence
Procedure, shortened: as §2

## COCc1ccccc1-n1nnc2cc(F)c(-n3c(=O)cc(C(F)(F)F)n(C)c3=O)cc21 [Example 26]
[1]; 0.008 kg/ha
  Postemergence herbicidal rating ABUTH: 9.0
[1]; 0.016 kg/ha
  Postemergence herbicidal rating ABUTH: 9.0
[1]; 0.032 kg/ha
  Postemergence herbicidal rating ABUTH: 9.0
[1]; 0.062 kg/ha
  Postemergence herbicidal rating ABUTH: 9.0
[2]; 0.008 kg/ha
  Postemergence herbicidal rating AMBEL: 4.0
[2]; 0.016 kg/ha
  Postemergence herbicidal rating AMBEL: 6.0
[2]; 0.032 kg/ha
  Postemergence herbicidal rating AMBEL: 7.0
[2]; 0.062 kg/ha
  Postemergence herbicidal rating AMBEL: 9.0
[3]; 0.008 kg/ha
  Postemergence herbicidal rating CASOB: 1.0
[3]; 0.016 kg/ha
  Postemergence herbicidal rating CASOB: 2.0
[3]; 0.032 kg/ha
  Postemergence herbicidal rating CASOB: 2.0
[3]; 0.062 kg/ha
  Postemergence herbicidal rating CASOB: 4.0
[4]; 0.008 kg/ha
  Postemergence herbicidal rating CHEAL: 2.0
[4]; 0.016 kg/ha
  Postemergence herbicidal rating CHEAL: 7.0
[4]; 0.032 kg/ha
  Postemergence herbicidal rating CHEAL: 9.0
[5]; 0.008 kg/ha
  Postemergence herbicidal rating ECHCG: 1.0
[5]; 0.016 kg/ha
  Postemergence herbicidal rating ECHCG: 1.0
[5]; 0.032 kg/ha
  Postemergence herbicidal rating ECHCG: 1.0
[5]; 0.062 kg/ha
  Postemergence herbicidal rating ECHCG: 3.0
[6]; 0.008 kg/ha
  Postemergence herbicidal rating GALAP: 1.0
[6]; 0.016 kg/ha
  Postemergence herbicidal rating GALAP: 1.0
[6]; 0.032 kg/ha
  Postemergence herbicidal rating GALAP: 2.0
[6]; 0.062 kg/ha
  Postemergence herbicidal rating GALAP: 6.0
[7]; 0.008 kg/ha
  Postemergence herbicidal rating IPOHE: 4.0
[7]; 0.016 kg/ha
  Postemergence herbicidal rating IPOHE: 9.0
[7]; 0.032 kg/ha
  Postemergence herbicidal rating IPOHE: 9.0
[7]; 0.062 kg/ha
  Postemergence herbicidal rating IPOHE: 9.0
[8]; 0.008 kg/ha
  Postemergence herbicidal rating SETVI: 1.0
[8]; 0.016 kg/ha
  Postemergence herbicidal rating SETVI: 5.0
[8]; 0.032 kg/ha
  Postemergence herbicidal rating SETVI: 2.0
[8]; 0.062 kg/ha
  Postemergence herbicidal rating SETVI: 5.0
[9]; 0.008 kg/ha
  Postemergence herbicidal rating GLXMAW: 4.5
[9]; 0.016 kg/ha
  Postemergence herbicidal rating GLXMAW: 5.0
[9]; 0.032 kg/ha
  Postemergence herbicidal rating GLXMAW: 5.5
[9]; 0.062 kg/ha
  Postemergence herbicidal rating GLXMAW: 9.0
[10]; 0.008 kg/ha
  Postemergence herbicidal rating TRZAWR: 2.0
[10]; 0.016 kg/ha
  Postemergence herbicidal rating TRZAWR: 2.5
[10]; 0.032 kg/ha
  Postemergence herbicidal rating TRZAWR: 3.0
[10]; 0.062 kg/ha
  Postemergence herbicidal rating TRZAWR: 4.0
[11]; 0.008 kg/ha
  Postemergence herbicidal rating ORYSAT: 2.0
[11]; 0.016 kg/ha
  Postemergence herbicidal rating ORYSAT: 2.0
[11]; 0.032 kg/ha
  Postemergence herbicidal rating ORYSAT: 3.0
[11]; 0.062 kg/ha
  Postemergence herbicidal rating ORYSAT: 4.5
[12]; 0.008 kg/ha
  Postemergence herbicidal rating ZEAMX: 3.5
[12]; 0.016 kg/ha
  Postemergence herbicidal rating ZEAMX: 4.0
[12]; 0.032 kg/ha
  Postemergence herbicidal rating ZEAMX: 4.0
[12]; 0.062 kg/ha
  Postemergence herbicidal rating ZEAMX: 6.5
[13]; rate 0.016 kg/ha
  ABUTH herbicidal rating: 9.0
[13]; rate 0.032 kg/ha
  ABUTH herbicidal rating: 9.0
[13]; rate 0.062 kg/ha
  ABUTH herbicidal rating: 9.0
[13]; rate 0.125 kg/ha
  ABUTH herbicidal rating: 9.0
[14]; rate 0.016 kg/ha
  AMBEL herbicidal rating: 2.0
[14]; rate 0.032 kg/ha
  AMBEL herbicidal rating: 7.0
[14]; rate 0.062 kg/ha
  AMBEL herbicidal rating: 7.0
[14]; rate 0.125 kg/ha
  AMBEL herbicidal rating: 9.0
[15]; rate 0.016 kg/ha
  CASOB herbicidal rating: 0.0
[15]; rate 0.032 kg/ha
  CASOB herbicidal rating: 0.0
[15]; rate 0.062 kg/ha
  CASOB herbicidal rating: 7.0
[15]; rate 0.125 kg/ha
  CASOB herbicidal rating: 7.0
[16]; rate 0.032 kg/ha
  CHEAL herbicidal rating: 7.0
[16]; rate 0.062 kg/ha
  CHEAL herbicidal rating: 9.0
[16]; rate 0.125 kg/ha
  CHEAL herbicidal rating: 9.0
[17]; rate 0.016 kg/ha
  ECHCG herbicidal rating: 1.0
[17]; rate 0.032 kg/ha
  ECHCG herbicidal rating: 6.0
[17]; rate 0.062 kg/ha
  ECHCG herbicidal rating: 7.0
[17]; rate 0.125 kg/ha
  ECHCG herbicidal rating: 9.0
[18]; rate 0.016 kg/ha
  GALAP herbicidal rating: 0.0
[18]; rate 0.032 kg/ha
  GALAP herbicidal rating: 0.0
[18]; rate 0.062 kg/ha
  GALAP herbicidal rating: 7.0
[18]; rate 0.125 kg/ha
  GALAP herbicidal rating: 8.0
[19]; rate 0.016 kg/ha
  IPOHE herbicidal rating: 0.0
[19]; rate 0.032 kg/ha
  IPOHE herbicidal rating: 9.0
[19]; rate 0.062 kg/ha
  IPOHE herbicidal rating: 6.0
[19]; rate 0.125 kg/ha
  IPOHE herbicidal rating: 9.0
[20]; rate 0.016 kg/ha
  SETVI herbicidal rating: 2.0
[20]; rate 0.032 kg/ha
  SETVI herbicidal rating: 9.0
[20]; rate 0.062 kg/ha
  SETVI herbicidal rating: 9.0
[20]; rate 0.125 kg/ha
  SETVI herbicidal rating: 9.0
[21]; rate 0.016 kg/ha
  GLXMAW herbicidal rating: 1.0
[21]; rate 0.032 kg/ha
  GLXMAW herbicidal rating: 2.0
[21]; rate 0.062 kg/ha
  GLXMAW herbicidal rating: 9.0
[21]; rate 0.125 kg/ha
  GLXMAW herbicidal rating: 5.0
[22]; rate 0.016 kg/ha
  TRZAWR herbicidal rating: 0.0
[22]; rate 0.062 kg/ha
  TRZAWR herbicidal rating: 6.0
[22]; rate 0.125 kg/ha
  TRZAWR herbicidal rating: 8.0
[23]; rate 0.016 kg/ha
  ORYSAT herbicidal rating: 0.0
[23]; rate 0.032 kg/ha
  ORYSAT herbicidal rating: 3.0
[23]; rate 0.062 kg/ha
  ORYSAT herbicidal rating: 5.0
[23]; rate 0.125 kg/ha
  ORYSAT herbicidal rating: 7.0
[24]; rate 0.016 kg/ha
  ZEAMX herbicidal rating: 1.0
[24]; rate 0.032 kg/ha
  ZEAMX herbicidal rating: 4.0
[24]; rate 0.062 kg/ha
  ZEAMX herbicidal rating: 7.0
[24]; rate 0.125 kg/ha
  ZEAMX herbicidal rating: 7.0

Reference: patent US20020111274A1, “1-alkyl-3-[1-(substituted phenyl) benzotriazol-6-yl] uracils” (BASF Aktiengesellschaft, priority 2000, published 2002)
